What was measured:
[1] = (§1) Pharmacokinetic parameters for Letrozole evaluated following single oral administration of Letrozole tablets; assay type: ADME, organism-based; design: dose 2.5 mg, route oral; conditions: human, in vivo, 2.5 mg
Homo sapiens = test: as §1; assay type: ADME, organism-based; design: dose 2.5 mg, route oral; conditions: in vivo

CL/F [1]: 0.58 mL/min/kg
Cmax [1]: 115 nM
Tmax [1]: 1 h
dose excreted ([1]; read-out: Excretion): 3.9%
Vd (Homo sapiens): 1.87 L/kg
Structure (SMILES): N#Cc1ccc(C(c2ccc(C#N)cc2)n2cncn2)cc1 [LETROZOLE]
